Laboratory results taken from PMC11555526, “Development of 2-Aminoadenine-Based Proteolysis-Targeting Chimeras (PROTACs) as Novel Potent Degraders of Monopolar Spindle 1 and Aurora Kinases” (ACS Pharmacology & Translational Science, 2024).

Experiments:
[1] = biological target: T1, TTK (Homo sapiens, UniProt P33981); experiment: Immunoblot of TTK in naive MV4-11 cells; format: cell-based; design: endogenous in cells; host or cells: naive MV4-11; conditions: 6 h
T1 sequence (P33981 1-857): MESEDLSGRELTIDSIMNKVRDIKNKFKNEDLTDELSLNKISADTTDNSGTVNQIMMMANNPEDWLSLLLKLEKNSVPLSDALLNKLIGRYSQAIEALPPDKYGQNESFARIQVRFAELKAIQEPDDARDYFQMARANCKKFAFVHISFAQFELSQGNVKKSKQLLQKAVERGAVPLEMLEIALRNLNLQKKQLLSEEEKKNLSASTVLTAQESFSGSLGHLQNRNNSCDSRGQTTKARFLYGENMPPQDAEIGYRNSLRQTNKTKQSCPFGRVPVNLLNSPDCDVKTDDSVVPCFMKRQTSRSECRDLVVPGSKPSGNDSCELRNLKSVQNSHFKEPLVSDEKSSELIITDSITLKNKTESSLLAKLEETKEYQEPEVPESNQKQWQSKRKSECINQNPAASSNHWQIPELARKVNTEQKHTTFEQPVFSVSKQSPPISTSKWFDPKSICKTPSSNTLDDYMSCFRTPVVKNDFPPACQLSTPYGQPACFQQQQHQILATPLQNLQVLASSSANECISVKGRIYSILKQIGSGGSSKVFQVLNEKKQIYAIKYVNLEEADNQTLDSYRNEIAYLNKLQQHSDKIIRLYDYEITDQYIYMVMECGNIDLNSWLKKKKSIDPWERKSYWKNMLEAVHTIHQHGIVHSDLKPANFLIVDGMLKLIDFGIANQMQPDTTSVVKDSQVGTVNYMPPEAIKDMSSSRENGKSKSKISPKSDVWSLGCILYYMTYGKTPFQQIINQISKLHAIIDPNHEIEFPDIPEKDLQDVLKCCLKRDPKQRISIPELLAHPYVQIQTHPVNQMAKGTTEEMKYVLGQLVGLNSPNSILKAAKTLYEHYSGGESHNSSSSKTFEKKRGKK
Description: The cells were treated with compounds or vehicle for indicated time points and lysed in RIPA lysis buffer (50 mM HEPES pH 7.9, 140 mM NaCl, 1 mM EDTA, 1% Triton X-100, 0.1% SDS, 0.1% sodium deoxycholate) containing protease and phosphatase inhibitors (Sigma) for 20 min at 4 °C. Cell lysates were cleared by centrifugation, and protein concentration was determined with bicinchoninic acid assay. Equal amounts of protein per sample were separated by Bis-Tris-PAGE and transferred to PVDF membranes (Millipore). The membranes were blocked with 5% (w/v) nonfat dry milk in TBS-T [20 mM Tris–HCl, pH 7.5, 150 mM NaCl, 0.1% (v/v) Tween-20] for 1 h at room temperature and incubated with primary antibody at 4 °C overnight. Visualization was carried out using horseradish peroxidase (HRP)-labeled secondary antibodies and detected using a chemiluminescent HRP substrate (Millipore) in LAS3000 or LAS4000 mini (Fujifilm). Vinculin, GAPDH, or B-actin were used as a loading control. The loading control was probed along with the target antibody by cutting the membrane. For targets with similar molecular weights, the samples were run in duplicate and probed with their respective loading controls, although only one control was shown in the figure for all targets. The signal was quantified using ImageJ or Image Studio Lite against the corresponding loading controls. Antibodies used in this study were as follows: Aurora A/AIK (Cell Signaling Technology, 3092), Aurora B (Bethyl Laboratories, A300–431A), TTK (Santa Cruz Biotechnology, sc-56968), GAPDH (Cell Signaling Technology, 2118), B-Actin (Sigma, A5441), and Vinculin (Sigma, V9131).
α GAPDH α Vinculin α B-Actin
Figure S2: Cellular degradation studies of SF1-based compounds. […]
GAPDH was used as a loading control. (E-
Immunoblots of TTK and AURKB. Naive MV4-11 cells were treated with indicated concentration of 44 or 47 G)
(E), 18 (F), and 14 or 20 (G) for 6 h and compared with vehicle treated cells. […]
All HiBiT data are represented as a mean ±s.d. from n=2 replicates. […]

[2] = Plasma stability (LC-ESI-MS); format: in vitro ADME; conditions: 37 °C
Description: Lastly, to gain a first insight into the stability of the synthesized compounds in a biological system, the stability of one of the degraders was examined at two different pH values and in human plasma (Figures S8 and S9). We chose one of the best degraders of the SF1 series, 20 as it also resembled the best degrader from azareversine series 19 in terms of the linker and E3-binding moiety. All experiments were carried out at 37 °C, and aliquots were analyzed using LC-ESI-MS at predetermined time points. […] We concluded from the stability profile of 20 that it is sufficient for further testing.
First, 250 µg of conjugate 20 were diluted in 5 µL DMSO and the mixture was added to 0.5 mL of human plasma. The mixture was incubated at 37 °C. 50 µL of aliquot was removed at predetermined time points and quenched with 150 µL ice-cold acetonitrile (+0.1% formic acid). Then, the mixture was centrifuged at 10,000 rpm for 10 min. Then, 50 µL of supernatant was added to 50 µL of ultrapure water (+0.1% formic acid) and analyzed by LC-MS. Results are presented as the mean ± SD of three independent experiments. […]

relative TTK level (immunoblot quantification, vehicle = 1.00) ([1]; 10 µM) | relative TTK level (immunoblot quantification, vehicle = 1.00) ([1]; 0.01 µM) | relative TTK level (immunoblot quantification, vehicle = 1.00) ([1]; 1 µM) | half-life (t1/2) in human plasma [2] | SMILES
1.16 | – | – | – | CC(C)S(=O)(=O)c1ccccc1Nc1nc(Nc2ccc(N3CCN(C(=O)CCCC(=O)Nc4cccc5c4C(=O)N(C4CCC(=O)NC4=O)C5=O)CC3)cc2)nc2[nH]cnc12 (centres unmarked) [Compound 14]
0.67 | 1.00 | 1.00 | – | Cc1ncsc1-c1ccc(CNC(=O)[C@@H]2C[C@@H](O)CN2C(=O)[C@@H](NC(=O)CCCC(=O)N2CCN(c3ccc(Nc4nc(Nc5ccccc5S(=O)(=O)C(C)C)c5nc[nH]c5n4)cc3)CC2)C(C)(C)C)cc1 [Compound 44]
– | – | – | 4.4 h | CC(C)S(=O)(=O)c1ccccc1Nc1nc(Nc2ccc(N3CCN(C(=O)CNC(=O)CCCC(=O)Nc4cccc5c4C(=O)N(C4CCC(=O)NC4=O)C5=O)CC3)cc2)nc2[nH]cnc12 (centres unmarked) [Compound 20]
